# Laboratory results as given in patent publication US20240067693A1, “POLYPEPTIDES AND USES THEREOF” (MEDIMMUNE LIMITED, priority 2020, published 2024).
# Numbered stars: 1 amine (or outer) side, 2 acyl side, 3 side chain; on linkers, the order of the positions; unused ones are H or OH. Bridge positions count the residues as written; N and C are the ends. Square brackets hold non-standard residues; d marks the D form. Side chains are listed from the residue outwards. Peptide text beside a SMILES is read from it. * marks the point of attachment. C18 diacid = O=C(O)CCCCCCCCCCCCCCCCC(=O)*; γGlu = O=C(O)[C@H](CCC(=O)[*:2])N[*:1]; Aib = CC(C)(N)C(=O)O
# Tests used:
# [1] = target: T1, human amylin receptor (calcitonin receptor co-expressed with receptor activity modifying protein, RAMP3) (hAMYR3) (Homo sapiens, UniProt O60896+P30988); assay: cAMP production in 1321N1 cells with stable recombinant expression of human amylin receptor (hAMYR3); assay type: cell-based; conditions: for Ratio (selectivity hAMYR vs hCTR, ratio of EC50 values at the two receptors): EC50 hCTR / EC50 hAMYR3; for EC50: cAMP, 1321N1 cells, assay buffer with 0.1% BSA, read-out: EC50 (pM) hAMYR3
# T1 construct: expressed in transfected cells
# T1 sequence (P30988 25-474): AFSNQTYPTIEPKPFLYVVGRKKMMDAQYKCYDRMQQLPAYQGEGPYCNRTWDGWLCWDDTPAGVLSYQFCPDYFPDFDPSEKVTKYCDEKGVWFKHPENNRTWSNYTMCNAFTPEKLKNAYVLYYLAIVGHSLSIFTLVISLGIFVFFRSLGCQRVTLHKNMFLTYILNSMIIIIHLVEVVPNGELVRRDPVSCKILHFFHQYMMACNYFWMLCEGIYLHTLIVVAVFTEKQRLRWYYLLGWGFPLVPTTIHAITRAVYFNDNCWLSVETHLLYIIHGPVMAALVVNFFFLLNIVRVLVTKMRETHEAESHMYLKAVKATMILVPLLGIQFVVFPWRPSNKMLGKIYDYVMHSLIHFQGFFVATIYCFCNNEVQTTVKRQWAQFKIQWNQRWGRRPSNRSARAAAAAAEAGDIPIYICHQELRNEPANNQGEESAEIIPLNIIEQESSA
# T1 sequence (O60896 24-148 partner): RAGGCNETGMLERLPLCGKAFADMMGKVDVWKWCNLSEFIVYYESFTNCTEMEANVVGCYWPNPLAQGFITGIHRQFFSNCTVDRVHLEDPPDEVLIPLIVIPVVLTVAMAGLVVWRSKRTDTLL
# In short: (§1)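 EC50 values come from 4-parameter logistic fits of HTRF cAMP signal, normalised to maximal calcitonin or amylin effect. Peptides were tested in duplicate for 30 min at RT in IBMX-containing (0.5 mM) BSA/HEPES buffer pH 7.4 on stable 1321N1 (human CTR, AMYR3) or HEK (rat CTR, AMYR3) lines.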
# [2] = target: T2, human calcitonin receptor (hCTR) (Homo sapiens, UniProt P30988); assay: cAMP production in 1321N1 cells with stable recombinant expression of human calcitonin receptor (hCTR); assay type: cell-based; conditions: cAMP, 1321N1 cells, assay buffer with 0.1% BSA; read-out: EC50 (pM) hCTR
# T2 construct: expressed in transfected cells
# T2 sequence (P30988 25-474): T1 sequence (P30988 25-474)
# In short: as §1
SMILES,"Ratio (selectivity hAMYR vs hCTR, ratio of EC50 values at the two receptors) [1]",EC50 [1],EC50 [2]
"CC[C@H](C)[C@H](NC(=O)[C@@H]1CCCN1C(=O)CNC(=O)[C@H](Cc1ccccc1)NC(=O)[C@H](CC(N)=O)NC(=O)C(C)(C)NC(=O)[C@H](CO)NC(=O)[C@H](CO)NC(=O)[C@H](Cc1c[nH]cn1)NC(=O)[C@H](CO)NC(=O)[C@H](CC(C)C)NC(=O)[C@H](Cc1ccccc1)NC(=O)[C@H](CC(N)=O)NC(=O)[C@H](C)NC(=O)[C@H](CC(C)C)NC(=O)[C@H](CCCNC(=N)N)NC(=O)[C@H](CCC(N)=O)NC(=O)[C@@H](NC(=O)[C@H](C)NC(=O)[C@@H]1CSSC[C@H](NC(=O)[C@H](CCCCN)NC(=O)[C@@H](N)CCCCNC(=O)CC[C@H](NC(=O)CCCCCCCCCCCCCCCCC(=O)O)C(=O)O)C(=O)N[C@@H](CC(N)=O)C(=O)N[C@@H]([C@@H](C)O)C(=O)N[C@@H](C)C(=O)N[C@@H]([C@@H](C)O)C(=O)N1)[C@@H](C)O)C(=O)N[C@@H](CC(C)C)C(=O)N1CCC[C@H]1C(=O)N1CCC[C@H]1C(=O)N[C@H](C(=O)N1CCC[C@H]1C(=O)N[C@H](C(=O)NCC(=O)N[C@@H](CO)C(=O)N[C@@H](CC(N)=O)C(=O)N[C@H](C(=O)N[C@@H](Cc1ccc(O)cc1)C(N)=O)[C@@H](C)O)C(C)C)[C@@H](C)O [Peptide 53, K(γE-C18diacid)K[CNTATC]ATQRLANFLSHSS(Aib)NFGPILPPTPVGSNTY-amide] (H-K([γGlu-C18 diacid])KCNTATCATQRLANFLSHSS[Aib]NFGPILPPTPVGSNTY-NH2; disulfide 3-8; N-terminus assumed)",2,98 pM,235 pM
"CC[C@H](C)[C@H](NC(=O)[C@@H]1CCCN1C(=O)CNC(=O)[C@H](Cc1ccccc1)NC(=O)[C@H](CC(N)=O)NC(=O)C(C)(C)NC(=O)[C@H](CO)NC(=O)[C@H](CO)NC(=O)[C@H](Cc1c[nH]cn1)NC(=O)[C@H](CO)NC(=O)[C@H](CC(C)C)NC(=O)[C@H](Cc1ccccc1)NC(=O)[C@H](CC(N)=O)NC(=O)[C@H](C)NC(=O)[C@H](CC(C)C)NC(=O)[C@H](CCCNC(=N)N)NC(=O)[C@H](CCC(N)=O)NC(=O)[C@@H](NC(=O)[C@H](C)NC(=O)[C@@H]1CSSC[C@H](NC(=O)[C@H](CCCCN)NC(=O)[C@@H](N)CCCCNC(=O)CC[C@H](NC(=O)CCCCCCCCCCCCCCCCC(=O)O)C(=O)O)C(=O)N[C@@H](CC(N)=O)C(=O)N[C@@H]([C@@H](C)O)C(=O)N[C@@H](C)C(=O)N[C@@H]([C@@H](C)O)C(=O)N1)[C@@H](C)O)C(=O)N[C@@H](CC(C)C)C(=O)N1CCC[C@H]1C(=O)N1CCC[C@H]1C(=O)N[C@H](C(=O)N[C@@H](CC(N)=O)C(=O)N[C@H](C(=O)N1CCC[C@H]1C(=O)N[C@@H](CO)C(=O)N[C@@H](CC(N)=O)C(=O)N[C@H](C(=O)N[C@@H](Cc1ccc(O)cc1)C(N)=O)[C@@H](C)O)C(C)C)[C@@H](C)O [Peptide 54, K(γE-C18diacid)K[CNTATC]ATQRLANFLSHSS(Aib)NFGPILPPTNVPSNTY-amide] (H-K([γGlu-C18 diacid])KCNTATCATQRLANFLSHSS[Aib]NFGPILPPTNVPSNTY-NH2; disulfide 3-8; N-terminus assumed)",0.2,7590 pM,1510 pM
"CC[C@H](C)[C@H](NC(=O)[C@@H]1CCCN1C(=O)CNC(=O)[C@H](Cc1ccccc1)NC(=O)[C@H](CC(N)=O)NC(=O)C(C)(C)NC(=O)[C@H](CO)NC(=O)[C@H](CO)NC(=O)[C@H](Cc1c[nH]cn1)NC(=O)[C@H](CO)NC(=O)[C@H](CC(C)C)NC(=O)[C@H](Cc1ccccc1)NC(=O)[C@H](CC(N)=O)NC(=O)[C@H](C)NC(=O)[C@H](CC(C)C)NC(=O)[C@H](CCCNC(=N)N)NC(=O)[C@H](CCC(N)=O)NC(=O)[C@@H](NC(=O)[C@H](C)NC(=O)[C@@H]1CSSC[C@H](NC(=O)[C@H](CCCCN)NC(=O)[C@@H](N)CCCCNC(=O)CC[C@H](NC(=O)CCCCCCCCCCCCCCCCC(=O)O)C(=O)O)C(=O)N[C@@H](CC(N)=O)C(=O)N[C@@H]([C@@H](C)O)C(=O)N[C@@H](C)C(=O)N[C@@H]([C@@H](C)O)C(=O)N1)[C@@H](C)O)C(=O)N[C@@H](CC(C)C)C(=O)N1CCC[C@H]1C(=O)N1CCC[C@H]1C(=O)N[C@H](C(=O)N[C@@H](CC(N)=O)C(=O)N[C@H](C(=O)NCC(=O)N[C@@H](CO)C(=O)N1CCC[C@H]1C(=O)N[C@H](C(=O)N[C@@H](Cc1ccc(O)cc1)C(N)=O)[C@@H](C)O)C(C)C)[C@@H](C)O [Peptide 55, K(γE-C18diacid)K[CNTATC]ATQRLANFLSHSS(Aib)NFGPILPPTNVGSPTY-amide] (H-K([γGlu-C18 diacid])KCNTATCATQRLANFLSHSS[Aib]NFGPILPPTNVGSPTY-NH2; disulfide 3-8)",3,678 pM,1870 pM
"CC[C@H](C)[C@H](NC(=O)[C@@H]1CCCN1C(=O)CNC(=O)[C@H](Cc1ccccc1)NC(=O)[C@H](CC(N)=O)NC(=O)C(C)(C)NC(=O)[C@H](CO)NC(=O)[C@H](CO)NC(=O)[C@H](Cc1c[nH]cn1)NC(=O)[C@@H](NC(=O)[C@H](CC(C)C)NC(=O)[C@H](Cc1ccccc1)NC(=O)[C@H](CC(N)=O)NC(=O)[C@H](C)NC(=O)[C@H](CC(C)C)NC(=O)[C@H](CCCNC(=N)N)NC(=O)[C@H](CCC(N)=O)NC(=O)[C@@H](NC(=O)[C@H](C)NC(=O)[C@@H]1CSSC[C@H](NC(=O)[C@@H](N)CCCCNC(=O)CC[C@H](NC(=O)CCCCCCCCCCCCCCCCC(=O)O)C(=O)O)C(=O)N[C@@H](CC(N)=O)C(=O)N[C@@H]([C@@H](C)O)C(=O)N[C@@H](C)C(=O)N[C@@H]([C@@H](C)O)C(=O)N1)[C@@H](C)O)C(C)C)C(=O)N[C@@H](CC(C)C)C(=O)N1CCC[C@H]1C(=O)N1CCC[C@H]1C(=O)N[C@H](C(=O)N[C@@H](CC(N)=O)C(=O)N[C@H](C(=O)NCC(=O)N[C@@H](CO)C(=O)N[C@@H](CC(N)=O)C(=O)N[C@H](C(=O)N[C@@H](Cc1ccc(O)cc1)C(N)=O)[C@@H](C)O)C(C)C)[C@@H](C)O [Peptide 56, K(γE-C18diacid)[CNTATC]ATQRLANFLVHSS(Aib)NFGPILPPTNVGSNTY-amide] (H-K([γGlu-C18 diacid])CNTATCATQRLANFLVHSS[Aib]NFGPILPPTNVGSNTY-NH2; disulfide 2-7; N-terminus assumed)",7,70 pM,493 pM
"CC[C@H](C)[C@H](NC(=O)[C@@H]1CCCN1C(=O)CNC(=O)[C@H](Cc1ccccc1)NC(=O)[C@H](CC(N)=O)NC(=O)C(C)(C)NC(=O)[C@H](CO)NC(=O)[C@H](CO)NC(=O)[C@H](Cc1c[nH]cn1)NC(=O)[C@@H](NC(=O)[C@H](CC(C)C)NC(=O)[C@H](Cc1ccccc1)NC(=O)[C@H](CC(N)=O)NC(=O)[C@H](C)NC(=O)[C@H](CC(C)C)NC(=O)[C@H](CCCNC(=N)N)NC(=O)[C@H](CCC(N)=O)NC(=O)[C@@H](NC(=O)[C@H](C)NC(=O)[C@@H]1CSSC[C@H](NC(=O)[C@H](CCCCN)NC(=O)[C@@H](N)CCCCNC(=O)CC[C@H](NC(=O)CCCCCCCCCCCCCCCCC(=O)O)C(=O)O)C(=O)N[C@@H](CC(N)=O)C(=O)N[C@@H]([C@@H](C)O)C(=O)N[C@@H](C)C(=O)N[C@@H]([C@@H](C)O)C(=O)N1)[C@@H](C)O)C(C)C)C(=O)N[C@@H](CC(C)C)C(=O)N1CCC[C@H]1C(=O)N1CCC[C@H]1C(=O)N[C@H](C(=O)N[C@@H](CC(N)=O)C(=O)N[C@H](C(=O)NCC(=O)N[C@@H](CO)C(=O)N[C@@H](CC(N)=O)C(=O)N[C@H](C(=O)N1CCC[C@H]1C(N)=O)[C@@H](C)O)C(C)C)[C@@H](C)O [Peptide 58, K(γE-C18diacid)K[CNTATC]ATQRLANFLVHSS(Aib)NFGPILPPTNVGSNTP-amide] (H-K([γGlu-C18 diacid])KCNTATCATQRLANFLVHSS[Aib]NFGPILPPTNVGSNTP-NH2; disulfide 3-8)",1,71 pM,65 pM
